Active and inactive are the calls of the source. No cut-off for these calls is given here. Peptide text beside a SMILES is read from it. * marks the point of attachment. βNA = c1ccc2cc(N*)ccc2c1

Series [1] relates to Escherichia coli BW25113. The experiment in a line: Inhibition of AcrB in wild-type drug resistant Escherichia coli BW25113 assessed as potentiation of erythromycin-induced antibacterial activity after 18 hrs by checkerboard method.
The subject of series [2] is Escherichia coli. The experiment in a line: Growth inhibition of wild-type drug-resistant Escherichia coli BW25113 after 18 hrs by resazurin dye based broth microdilution method. Background: Alamar Blue is a resazurin reagent that responds to reducing activity.
Series [3] has as its system Escherichia coli. The experiment in a line: Effect on rifampicin-induced antibacterial activity against wild-type drug resistant Escherichia coli BW25113 after 18 hrs by checkerboard method. It is filed as functional.
In series [4] the test system is Escherichia coli BW25113. The experiment in a line: Inhibition of AcrB in drug resistant Escherichia coli BW25113 assessed as reduction in nile red efflux at 200 uM pretreated for 15 mins followed by nile red addition measured after 3 hrs for 200 secs in presence of glucose by fluorimetric method.
The test system of series [5] is Escherichia coli BW25113. The experiment in a line: Inhibition of AcrB in wild-type drug resistant Escherichia coli BW25113 assessed as potentiation of chloramphenicol-induced antibacterial activity after 18 hrs by checkerboard method.
In series [6] the test system is Escherichia coli BW25113. The experiment in a line: Inhibition of AcrB in wild-type drug resistant Escherichia coli BW25113 assessed as potentiation of tetraphenyl phosphonium chloride-induced antibacterial activity after 18 hrs by checkerboard method.
Series [7] has as its system Escherichia coli. The experiment in a line: Effect on rifampicin-induced antibacterial activity against wild-type drug resistant Escherichia coli BW25113 assessed as rifampicin MIC at 200 ug/ml after 18 hrs by checkerboard method (reference value: 16 ug/ml). It is filed as functional. The following applies: BW25113, 18 h.
In series [8] the test system is Escherichia coli BW25113. The experiment in a line: Inhibition of AcrB in wild-type drug resistant Escherichia coli BW25113 assessed as potentiation of tetraphenyl phosphonium chloride-induced antibacterial activity by measuring tetraphenyl phosphonium chloride MIC at 200 ug/ml after 18 hrs by checkerboard method (reference value: 1024 ug/ml).
Series [9] deals with Escherichia coli BW25113. The experiment in a line: Inhibition of AcrB in wild-type drug resistant Escherichia coli BW25113 assessed as potentiation of erythromycin-induced antibacterial activity by measuring erythromycin MIC at 200 ug/ml after 18 hrs by checkerboard method (reference value: 128 ug/ml).
Series [10] has as its system Escherichia coli BW25113. The experiment in a line: Inhibition of AcrB in wild-type drug resistant Escherichia coli BW25113 assessed as potentiation of chloramphenicol-induced antibacterial activity by measuring chloramphenicol MIC at 200 ug/ml after 18 hrs by checkerboard method (reference value: 8 ug/ml).
Series [11] concerns Escherichia coli BW25113. The experiment in a line: Inhibition of […] in drug resistant Escherichia coli BW25113 assessed as increase in outer membrane permeability by measuring increase nitrocefin hydrolysis at 512 ug/ml measured over 30 mins in presence of CCCP by spectrophotometric method.
Series [12] has as its system Escherichia coli BW25113. The experiment in a line: Inhibition of AcrB in drug resistant Escherichia coli BW25113 assessed as reduction in nile red efflux at 500 uM pretreated for 15 mins followed by nile red addition measured after 3 hrs for 200 secs in presence of glucose by fluorimetric method.

As to `NC(=O)c1cc(OCc2ccccc2F)c2ccccc2c1`, the inhibition result with Escherichia coli BW25113 [1], in the series with Escherichia coli BW25113 [5] and in the series with Escherichia coli BW25113 [6] was “inactive” each time. For the same compound, the “growth inhibition (GI)” value with Escherichia coli [2] was “Non-Toxic”. Further, the result in the series with Escherichia coli [3] was inactive. For the same compound, the inhibition entry in the series on Escherichia coli BW25113 [4] is “Active”.
Take `CCOC(=O)C(C)Oc1cc(C(N)=O)cc2ccccc12` (stereo not drawn): the inhibition entry in the series with Escherichia coli BW25113 [1], in the series with Escherichia coli BW25113 [5] and in the series with Escherichia coli BW25113 [6] was “inactive” throughout. The “growth inhibition (GI)” value in the series with Escherichia coli [2] is reported as “Non-Toxic”. Also, the result in the series on Escherichia coli [3] was inactive.
On to `NC(=O)c1cc(OCc2ccc(F)cc2)c2ccccc2c1`, for which the inhibition entry in the series on Escherichia coli BW25113 [1], in the series with Escherichia coli BW25113 [5] and in the series with Escherichia coli BW25113 [6] was “inactive” throughout. Further, the “growth inhibition (GI)” value in the series on Escherichia coli [2] was “Non-Toxic”. Further, the result with Escherichia coli [3] was inactive.
With `N=C(N)NCCC[C@H](NC(=O)[C@@H](N)Cc1ccccc1)C(=O)Nc1ccc2ccccc2c1` [PABETAN] (H-Phe-Arg-βNA), the MIC in the series on Escherichia coli [7] was 1 µg/mL; in the series on Escherichia coli BW25113 [8], 128 µg/mL; with Escherichia coli BW25113 [9], 16 µg/mL; in the series on Escherichia coli BW25113 [10] it was 2 µg/mL.
As for `NC(=O)c1cc(OCc2ccccc2)c2ccccc2c1`, the “growth inhibition (GI)” value with Escherichia coli [2] is “Non-Toxic”. The inhibition entry with Escherichia coli BW25113 [11], in the series with Escherichia coli BW25113 [12] and in the series with Escherichia coli BW25113 [5] was “Active” in each case.
In the case of `CCCCC(CC)COc1cc(C(N)=O)cc2ccccc12` (stereo not drawn), the inhibition entry in the series on Escherichia coli BW25113 [1], in the series on Escherichia coli BW25113 [5] and in the series with Escherichia coli BW25113 [6] was “inactive” each time. Further, the “growth inhibition (GI)” value in the series with Escherichia coli [2] is “Non-Toxic”. Moreover, in the series with Escherichia coli [3], the outcome was inactive.
Turning to `CCOC(=O)CCCOc1cc(C(N)=O)cc2ccccc12`, the inhibition entry in the series with Escherichia coli BW25113 [1], in the series with Escherichia coli BW25113 [5] and with Escherichia coli BW25113 [6] was “inactive” in each case. Further, the “growth inhibition (GI)” value in the series on Escherichia coli [2] is “Non-Toxic”. Besides, the result in the series with Escherichia coli [3] was inactive.
Consider `CC(C)COc1cc(C(N)=O)cc2ccccc12`, for which the inhibition result in the series with Escherichia coli BW25113 [1], in the series with Escherichia coli BW25113 [11] and with Escherichia coli BW25113 [12] was “Active” in each case. The “growth inhibition (GI)” value in the series with Escherichia coli [2] is “Non-Toxic”.
Regarding `CCOC(=O)COc1cc(C(N)=O)cc2ccccc12`, the inhibition result with Escherichia coli BW25113 [1], with Escherichia coli BW25113 [5] and in the series with Escherichia coli BW25113 [6] was “inactive” each time. Besides, in the series with Escherichia coli [2], the “growth inhibition (GI)” value was “Non-Toxic”. In addition, in the series on Escherichia coli [3], the result was inactive.
Take `NC(=O)c1cc(OCc2ccccc2Cl)c2ccccc2c1`: the inhibition result in the series with Escherichia coli BW25113 [1], in the series on Escherichia coli BW25113 [5] and in the series with Escherichia coli BW25113 [6] was “inactive” each time. Also, the “growth inhibition (GI)” value in the series with Escherichia coli [2] is recorded as “Non-Toxic”. Further, the outcome with Escherichia coli [3] was inactive.
With `Cc1ccccc1COc1cc(C(N)=O)cc2ccccc12`, the inhibition entry in the series with Escherichia coli BW25113 [1], in the series on Escherichia coli BW25113 [5] and with Escherichia coli BW25113 [6] was “inactive” in each case. In addition, in the series on Escherichia coli [2], the “growth inhibition (GI)” value is reported as “Non-Toxic”. Moreover, the outcome with Escherichia coli [3] was inactive.
Turning to `NC(=O)c1cc(OCC2CCCC2)c2ccccc2c1`, the inhibition entry with Escherichia coli BW25113 [1], in the series on Escherichia coli BW25113 [5] and with Escherichia coli BW25113 [6] was “inactive” each time. The “growth inhibition (GI)” value in the series with Escherichia coli [2] is “Non-Toxic”. Further, the outcome in the series with Escherichia coli [3] was inactive.
With `CCC(C)Oc1cc(C(N)=O)cc2ccccc12` (stereo not drawn), the inhibition result in the series on Escherichia coli BW25113 [1], in the series on Escherichia coli BW25113 [5] and with Escherichia coli BW25113 [6] was “inactive” throughout. Also, the “growth inhibition (GI)” value in the series on Escherichia coli [2] is on record as “Non-Toxic”. In addition, the outcome with Escherichia coli [3] was inactive.
In the case of `NC(=O)c1cc(OCc2cccc(F)c2)c2ccccc2c1`, the inhibition result with Escherichia coli BW25113 [1], in the series with Escherichia coli BW25113 [5] and in the series with Escherichia coli BW25113 [6] was “inactive” in each case. The “growth inhibition (GI)” value in the series on Escherichia coli [2] is on record as “Non-Toxic”. The outcome with Escherichia coli [3] was inactive.
